In brackets after ≈: the same amount, converted by molar mass.
Assays:
Experiment in all cases: In-vitro antimicrobial activity primary screen (agar dilution MIC)
Format in all cases: cell-based
[1] = tested on: Staphylococcus aureus NCTC 10649; settings: NCTC10649, BHI agar, 20-24 h, read-out: MIC
Outline: (§1)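 Minimum inhibitory concentrations come from twelve-step agar dilution in BHI medium. Strains, diluted 1:100 or 1:10 if slow-growing, were replicator-plated and incubated 20-24 h, 35-37° C; haze or sparse colonies counted as inhibition.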

[2] = tested on: Staphylococcus aureus 642A; settings: BHI agar, 20-24 h, read-out: MIC
Outline: as §1

[3] = tested on: Enterobacter aerogenes ATCC 13048; settings: Klebsiella aerogenes, ATCC13048, 24 h
Outline: as §1

[4] = tested on: Streptococcus pyrogenes EES61; settings: BHI agar, 20-24 h, read-out: MIC
Outline: as §1

[5] = tested on: Klebsiella pneumoniae ATCC 8045; settings: Klebsiella pneumoniae, ATCC8045, 24 h
Outline: as §1

[6] = tested on: Streptococcus pyrogenes 2548 INDUC; settings: Streptococcus, 2548INDUC, 24 h, BHI agar, 20-24 h
Outline: as §1

[7] = tested on: Acinetobacter SP CMX 669; settings: Acinetobacter, SPCMX669, 24 h, Acinetobacter SP CMX 669; BHI agar, 20-24 h
Outline: as §1

[8] = tested on: Pseudomonas aeruginosa K799/61; settings: Pseudomonas aeruginosa, K799/61, 24 h, Pseudomonas aeruginosa K799/61; BHI agar, 20-24 h
Outline: as §1

[9] = tested on: Escherichia coli JUHL; settings: Escherichia coli, 24 h
Outline: as §1

[10] = tested on: Escherichia coli H560; settings: Escherichia coli, H560, 24 h
Outline: as §1

[11] = tested on: Pseudomonas aeruginosa BMH10; settings: Pseudomonas aeruginosa, BMH10, 24 h, BHI agar, 20-24 h
Outline: as §1

[12] = tested on: Staphylococcus aureus A5177; settings: Staphylococcus aureus, A5177, 24 h
Outline: as §1

[13] = tested on: Pseudomonas aeruginosa A5007; settings: Pseudomonas aeruginosa, A5007, 24 h
Outline: as §1

[14] = tested on: Staphylococcus aureus 45 RAR2; settings: Staphylococcus aureus, 45RAR2, 24 h, BHI agar, 20-24 h
Outline: as §1

[15] = tested on: Streptococcus bovis A5169; settings: Streptococcus equinus, A5169, 24 h, BHI agar, 20-24 h
Outline: as §1

[16] = tested on: Escherichia coli DC-2; settings: Escherichia coli, DC2, 24 h
Outline: as §1

[17] = tested on: Staphylococcus aureus 45; settings: Staphylococcus aureus, 45, 24 h, BHI agar, 20-24 h
Outline: as §1

[18] = tested on: Micrococcus luteus ATCC 9341; settings: ATCC9341, BHI agar, 20-24 h, read-out: MIC
Outline: as §1

[19] = tested on: Providencia stuartii CMX 640; settings: Providencia stuartii, CMX640, 24 h
Outline: as §1

[20] = tested on: Streptococcus agalactiae CMX 508; settings: CMX508, BHI agar, 20-24 h, read-out: MIC
Outline: as §1

[21] = tested on: Pseudomonas aeruginosa K799/WT; settings: Pseudomonas aeruginosa, K799/WT, 24 h
Outline: as §1

[22] = tested on: Staphylococcus aureus ATCC 6538P; settings: Staphylococcus aureus, ATCC6538P, 24 h, BHI agar, 20-24 h
Outline: as §1

[23] = tested on: Enterococcus faecium ATCC 8043; settings: Enterococcus faecium, ATCC8043, 24 h
Outline: as §1

[24] = tested on: Escherichia coli SS; settings: BHI agar, 20-24 h, read-out: MIC
Outline: as §1

[25] = tested on: Micrococcus luteus ATCC 4698; settings: Micrococcus luteus, ATCC4698, 24 h, BHI agar, 20-24 h
Outline: as §1

[26] = tested on: Staphylococcus epidermidis 3519; settings: Staphylococcus epidermidis, 3519, 24 h, BHI agar, 20-24 h
Outline: as §1

[27] = tested on: Pseudomonas cepacia 2961; settings: Burkholderia cepacia, 2961, 24 h, BHI agar, 20-24 h
Outline: as §1

[28] = tested on: Staphylococcus aureus CMX 553; settings: Staphylococcus aureus, CMX553, 24 h, BHI agar, 20-24 h, read-out: MIC
Outline: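 Agar dilution in Brain Heart Infusion agar with twelve successive compound dilutions; plates inoculated with 1:100 diluted cultures by replicator and incubated 20-24 h at 35-37 °C. MIC is the lowest concentration giving no growth, slight haze or sparse isolated colonies versus compound-free control; erythromycin A plate run as reference.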

Q: Which results are given for CC[C@H]1OC(=O)[C@H](C)[C@@H](O[C@H]2C[C@@](C)(OC)[C@@H](O)[C@H](C)O2)[C@H](C)[C@@H](O[C@@H]2O[C@H](C)C[C@H](N(C)C)[C@H]2O)[C@](C)(OC)C[C@@H](C)[C@@H]2O[C@@]1(C)C(=O)[C@H]2C [Example 28B]?
A: MIC [1]: 0.39 µg/mL (≈ 0.534 µM); MIC [2]: 0.39 µg/mL (≈ 0.534 µM); MIC [3]: > 100 µg/mL; MIC [4]: 0.02 µg/mL (≈ 0.0274 µM); MIC [5]: > 100 µg/mL; MIC [6]: 3.1 µg/mL (≈ 4.25 µM); MIC [7]: 12.5 µg/mL (≈ 17.1 µM); MIC [8]: 3.1 µg/mL (≈ 4.25 µM); MIC [9]: > 100 µg/mL; MIC [10]: > 100 µg/mL; MIC [11]: 50 µg/mL (≈ 68.5 µM); MIC [12]: 0.39 µg/mL (≈ 0.534 µM); MIC [13]: > 100 µg/mL; MIC [14]: 0.39 µg/mL (≈ 0.534 µM); MIC [15]: 0.05 µg/mL (≈ 0.0685 µM); MIC [16]: > 100 µg/mL; MIC [17]: 3.1 µg/mL (≈ 4.25 µM); MIC [18]: 0.05 µg/mL (≈ 0.0685 µM); MIC [19]: > 100 µg/mL; MIC [20]: 0.02 µg/mL (≈ 0.0274 µM); MIC [21]: > 100 µg/mL; MIC [22]: 0.39 µg/mL (≈ 0.534 µM); MIC [23]: 0.1 µg/mL (≈ 0.137 µM); MIC [24]: 0.39 µg/mL (≈ 0.534 µM); MIC [25]: 0.1 µg/mL (≈ 0.137 µM); MIC [26]: 0.39 µg/mL (≈ 0.534 µM); MIC [27]: > 100 µg/mL; MIC [28]: 0.39 µg/mL (≈ 0.534 µM)

Source: US5288709A, “Erythromycin derivatives” (priority 1991, dated 1994)
